Test results from PubChem BioAssay (NCI).
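Cultured in 96-well plates, cells were exposed to test compound for 48 hours across five concentrations. GI50 is the concentration that inhibits growth by half. TGI: concentration producing complete growth inhibition.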

Experiments:
Experiment in all cases: growth of human tumour cells (NCI), 48 h
CCRF-CEM leukemia = system: CCRF-CEM leukemia
DLD-1 colon = system: DLD-1 colon
SW-620 colon = system: SW-620 colon
KM20L2 colon = system: KM20L2 colon
SK-MEL-28 melanoma = system: SK-MEL-28 melanoma
SNB-78 CNS = system: SNB-78 CNS
HCT-116 colon = system: HCT-116 colon
SK-MEL-5 melanoma = system: SK-MEL-5 melanoma
OVCAR-3 ovarian = system: OVCAR-3 ovarian
NCI-H460 lung = system: NCI-H460 lung
SK-MEL-2 melanoma = system: SK-MEL-2 melanoma
A498 renal = system: A498 renal
MOLT-4 leukemia = system: MOLT-4 leukemia
SN12C renal = system: SN12C renal
NCI-H23 lung = system: NCI-H23 lung
HT29 colon = system: HT29 colon
HOP-92 NSCLC = system: HOP-92 NSCLC
A549 NSCLC = system: A549 NSCLC
NCI-H522 lung = system: NCI-H522 lung
K-562 leukemia = system: K-562 leukemia
EKVX NSCLC = system: EKVX NSCLC
OVCAR-5 ovarian = system: OVCAR-5 ovarian
SK-OV-3 ovarian = system: SK-OV-3 ovarian
SF-268 CNS = system: SF-268 CNS
KM12 colon = system: KM12 colon
M19-MEL melanoma = system: M19-MEL melanoma
DMS 114 small cell lung = system: DMS 114 small cell lung
U251 CNS = system: U251 CNS
SNB-19 CNS = system: SNB-19 CNS
M14 melanoma = system: M14 melanoma
HCT-15 colon = system: HCT-15 colon
UO-31 renal = system: UO-31 renal
UACC-62 melanoma = system: UACC-62 melanoma
OVCAR-8 ovarian = system: OVCAR-8 ovarian
SF-539 CNS = system: SF-539 CNS
SF-295 CNS = system: SF-295 CNS
IGROV1 ovarian = system: IGROV1 ovarian
UACC-257 melanoma = system: UACC-257 melanoma
OVCAR-4 ovarian = system: OVCAR-4 ovarian
RPMI-8226 leukemia = system: RPMI-8226 leukemia
HCC-2998 colon = system: HCC-2998 colon
LOX IMVI melanoma = system: LOX IMVI melanoma
LXFL 529 NSCLC = system: LXFL 529 NSCLC
SNB-75 CNS = system: SNB-75 CNS
TK-10 renal = system: TK-10 renal
HL-60(TB) leukemia = system: HL-60(TB) leukemia
786-0 renal = system: 786-0 renal
MALME-3M melanoma = system: MALME-3M melanoma
HOP-62 NSCLC = system: HOP-62 NSCLC
ACHN renal = system: ACHN renal
COLO 205 colon = system: COLO 205 colon
NCI-H226 lung = system: NCI-H226 lung
HOP-18 NSCLC = system: HOP-18 NSCLC
RXF 393 renal = system: RXF 393 renal
DMS 273 small cell lung = system: DMS 273 small cell lung
SR leukemia = system: SR leukemia

NCCN.O=C([O-])C(=O)[O-].O=C([O-])C(=O)[O-].[Co+3].[K+]
GI50 (CCRF-CEM leukemia): > 100 µM | TGI (CCRF-CEM leukemia): > 100 µM | GI50 (DLD-1 colon): > 100 µM | TGI (DLD-1 colon): > 100 µM | GI50 (SW-620 colon): > 100 µM | TGI (SW-620 colon): > 100 µM | GI50 (KM20L2 colon): > 100 µM | TGI (KM20L2 colon): > 100 µM | GI50 (SK-MEL-28 melanoma): > 100 µM | TGI (SK-MEL-28 melanoma): > 100 µM | GI50 (SNB-78 CNS): > 100 µM | TGI (SNB-78 CNS): > 100 µM | GI50 (HCT-116 colon): > 100 µM | TGI (HCT-116 colon): > 100 µM | GI50 (SK-MEL-5 melanoma): > 100 µM | TGI (SK-MEL-5 melanoma): > 100 µM | GI50 (OVCAR-3 ovarian): > 100 µM | TGI (OVCAR-3 ovarian): > 100 µM | GI50 (NCI-H460 lung): > 100 µM | TGI (NCI-H460 lung): > 100 µM | GI50 (SK-MEL-2 melanoma): > 100 µM | TGI (SK-MEL-2 melanoma): > 100 µM | GI50 (A498 renal): > 100 µM | TGI (A498 renal): > 100 µM | GI50 (MOLT-4 leukemia): > 100 µM | TGI (MOLT-4 leukemia): > 100 µM | GI50 (SN12C renal): > 100 µM | TGI (SN12C renal): > 100 µM | GI50 (NCI-H23 lung): > 100 µM | TGI (NCI-H23 lung): > 100 µM | GI50 (HT29 colon): > 100 µM | TGI (HT29 colon): > 100 µM | GI50 (HOP-92 NSCLC): > 100 µM | TGI (HOP-92 NSCLC): > 100 µM | GI50 (A549 NSCLC): > 100 µM | TGI (A549 NSCLC): > 100 µM | GI50 (NCI-H522 lung): 92.4 µM | TGI (NCI-H522 lung): > 100 µM | GI50 (K-562 leukemia): > 100 µM | TGI (K-562 leukemia): > 100 µM | GI50 (EKVX NSCLC): > 100 µM | TGI (EKVX NSCLC): > 100 µM | GI50 (OVCAR-5 ovarian): > 100 µM | TGI (OVCAR-5 ovarian): > 100 µM | GI50 (SK-OV-3 ovarian): > 100 µM | TGI (SK-OV-3 ovarian): > 100 µM | GI50 (SF-268 CNS): > 100 µM | TGI (SF-268 CNS): > 100 µM | GI50 (KM12 colon): > 100 µM | TGI (KM12 colon): > 100 µM | GI50 (M19-MEL melanoma): > 100 µM | TGI (M19-MEL melanoma): > 100 µM | GI50 (DMS 114 small cell lung): > 100 µM | TGI (DMS 114 small cell lung): > 100 µM | GI50 (U251 CNS): > 100 µM | TGI (U251 CNS): > 100 µM | GI50 (SNB-19 CNS): > 100 µM | TGI (SNB-19 CNS): > 100 µM | GI50 (M14 melanoma): > 100 µM | TGI (M14 melanoma): > 100 µM | GI50 (HCT-15 colon): > 100 µM | TGI (HCT-15 colon): > 100 µM | GI50 (UO-31 renal): > 100 µM | TGI (UO-31 renal): > 100 µM | GI50 (UACC-62 melanoma): > 100 µM | TGI (UACC-62 melanoma): > 100 µM | GI50 (OVCAR-8 ovarian): > 100 µM | TGI (OVCAR-8 ovarian): > 100 µM | GI50 (SF-539 CNS): > 100 µM | TGI (SF-539 CNS): > 100 µM | GI50 (SF-295 CNS): > 100 µM | TGI (SF-295 CNS): > 100 µM | GI50 (IGROV1 ovarian): > 100 µM | TGI (IGROV1 ovarian): > 100 µM | GI50 (UACC-257 melanoma): > 100 µM | TGI (UACC-257 melanoma): > 100 µM | GI50 (OVCAR-4 ovarian): > 100 µM | TGI (OVCAR-4 ovarian): > 100 µM | GI50 (RPMI-8226 leukemia): > 100 µM | TGI (RPMI-8226 leukemia): > 100 µM | GI50 (HCC-2998 colon): > 100 µM | TGI (HCC-2998 colon): > 100 µM | GI50 (LOX IMVI melanoma): > 100 µM | TGI (LOX IMVI melanoma): > 100 µM | GI50 (LXFL 529 NSCLC): > 100 µM | TGI (LXFL 529 NSCLC): > 100 µM | GI50 (SNB-75 CNS): > 100 µM | TGI (SNB-75 CNS): > 100 µM | GI50 (TK-10 renal): > 100 µM | TGI (TK-10 renal): > 100 µM | GI50 (HL-60(TB) leukemia): > 100 µM | TGI (HL-60(TB) leukemia): > 100 µM | GI50 (786-0 renal): > 100 µM | TGI (786-0 renal): > 100 µM | GI50 (MALME-3M melanoma): > 100 µM | TGI (MALME-3M melanoma): > 100 µM | GI50 (HOP-62 NSCLC): > 100 µM | TGI (HOP-62 NSCLC): > 100 µM | GI50 (ACHN renal): > 100 µM | TGI (ACHN renal): > 100 µM | GI50 (COLO 205 colon): > 100 µM | TGI (COLO 205 colon): > 100 µM

CCOC(=O)N1Cc2ccoc2C1
TGI (CCRF-CEM leukemia): > 100 µM | TGI (DLD-1 colon): > 100 µM | TGI (SW-620 colon): > 100 µM | TGI (KM20L2 colon): > 100 µM | TGI (NCI-H226 lung): > 100 µM | TGI (SK-MEL-28 melanoma): > 100 µM | TGI (HCT-116 colon): > 100 µM | TGI (SK-MEL-5 melanoma): > 100 µM | TGI (OVCAR-3 ovarian): > 100 µM | TGI (NCI-H460 lung): > 100 µM | TGI (SK-MEL-2 melanoma): > 100 µM | TGI (MOLT-4 leukemia): > 100 µM | TGI (HOP-18 NSCLC): > 100 µM | TGI (RXF 393 renal): > 100 µM | TGI (SN12C renal): > 100 µM | TGI (NCI-H23 lung): > 100 µM | TGI (HT29 colon): > 100 µM | TGI (HOP-92 NSCLC): > 100 µM | TGI (A549 NSCLC): > 100 µM | TGI (DMS 273 small cell lung): > 100 µM | TGI (NCI-H522 lung): > 100 µM | TGI (K-562 leukemia): > 100 µM | TGI (EKVX NSCLC): > 100 µM | TGI (OVCAR-5 ovarian): > 100 µM | TGI (SK-OV-3 ovarian): > 100 µM | TGI (SF-268 CNS): > 100 µM | TGI (KM12 colon): > 100 µM | TGI (M19-MEL melanoma): > 100 µM | TGI (DMS 114 small cell lung): > 100 µM | TGI (U251 CNS): > 100 µM | TGI (SNB-19 CNS): > 100 µM | TGI (M14 melanoma): > 100 µM | TGI (HCT-15 colon): > 100 µM | TGI (UO-31 renal): > 100 µM | TGI (UACC-62 melanoma): > 100 µM | TGI (OVCAR-8 ovarian): > 100 µM | TGI (SR leukemia): > 100 µM | TGI (SF-539 CNS): > 100 µM | TGI (SF-295 CNS): > 100 µM | TGI (IGROV1 ovarian): > 100 µM | TGI (UACC-257 melanoma): > 100 µM | TGI (OVCAR-4 ovarian): > 100 µM | TGI (RPMI-8226 leukemia): > 100 µM | TGI (HCC-2998 colon): > 100 µM | TGI (LOX IMVI melanoma): > 100 µM | TGI (LXFL 529 NSCLC): > 100 µM | TGI (SNB-75 CNS): > 100 µM | TGI (TK-10 renal): > 100 µM | TGI (HL-60(TB) leukemia): > 100 µM | TGI (786-0 renal): > 100 µM | TGI (MALME-3M melanoma): > 100 µM | TGI (HOP-62 NSCLC): > 100 µM | TGI (ACHN renal): > 100 µM | TGI (COLO 205 colon): > 100 µM
